Holding throughout (type): toxicity, cell-based
The test system of one series is HEK-293T. Nature of the series: Incucyte cell viability with HEK293T. The following applies: human, 10 µM, compound concentration 10 uM.
The test system of the next series is Fibroblast. Nature of the series: Incucyte cell viability with human fibroblast. The following applies: 10 µM, compound concentration 10 uM.
In another series the test system is U2OS. Nature of the series: Incucyte cell viability with U2OS. The following applies: human, 10 µM, compound concentration 10 uM.
Further: unitless GR value; below 1 slowed growth and below 0 cell loss.

Regarding `CCC(C)(C)NC(=NC#N)Nc1cccnc1`, the “Growth Rate” value is 0.19 in the series on HEK-293T (6 h, replicate number 1); 0.56 in the series on HEK-293T (6 h, replicate number 2); 0.42 in the series with HEK-293T (12 h, replicate number 1); 0.56 with HEK-293T (12 h, replicate number 2); 0.64 in the series with HEK-293T (18 h, replicate number 1); 0.78 with HEK-293T (18 h, replicate number 2). Moreover, the “Growth Rate” value with HEK-293T (24 h, replicate number 1) is reported as 0.85; in the series with HEK-293T (24 h, replicate number 2) it was 0.95; in the series on Fibroblast (6 h, replicate number 1), -1; in the series on U2OS (0 h, replicate number 2), -0.68; in the series with U2OS (12 h, replicate number 2), 0.85; with U2OS (18 h, replicate number 1), 1.

With `O=C(Nc1ccc(Cl)nc1)c1ccc(Cl)cc1`, the “Growth Rate” value in the series on HEK-293T (6 h, replicate number 1) was determined as 0.33; in the series with HEK-293T (6 h, replicate number 2), 0.16; in the series on HEK-293T (12 h, replicate number 1), 0.71; in the series on HEK-293T (12 h, replicate number 2), 0.63; with HEK-293T (18 h, replicate number 1), 0.59; with HEK-293T (18 h, replicate number 2) it was 0.53. Besides, the “Growth Rate” value in the series with HEK-293T (24 h, replicate number 1) is given as 0.63; with HEK-293T (24 h, replicate number 2), 0.65; in the series on Fibroblast (0 h, replicate number 1), -0.21; in the series with Fibroblast (0 h, replicate number 2), -0.9; in the series with Fibroblast (6 h, replicate number 1), -0.32; in the series on Fibroblast (24 h, replicate number 1), 0.54. Also, the “Growth Rate” value in the series on U2OS (0 h, replicate number 1) is given as -0.12; with U2OS (0 h, replicate number 2), -0.39; with U2OS (12 h, replicate number 1), 0.95.

As for `CC[C@H](C(=O)Nc1ccccc1N1CCCC1)c1ccccc1`, the “Growth Rate” value was 0.92 in the series on HEK-293T (6 h, replicate number 1); 0.91 with HEK-293T (6 h, replicate number 2); -0.59 in the series on Fibroblast (6 h, replicate number 2); 0.33 with Fibroblast (12 h, replicate number 2); -0.04 with Fibroblast (18 h, replicate number 1); 0.67 in the series on Fibroblast (18 h, replicate number 2). In addition, the “Growth Rate” value with Fibroblast (24 h, replicate number 1) is recorded as -0.08; in the series with Fibroblast (24 h, replicate number 2) it was 0.9; in the series on U2OS (18 h, replicate number 2), 0.84; in the series on U2OS (24 h, replicate number 2) it was 0.84.

With `Oc1cccc(Nc2ccnc3[nH]c4ccccc4c23)c1`, the “Growth Rate” value in the series with HEK-293T (6 h, replicate number 1) is -0.94; with HEK-293T (6 h, replicate number 2), -0.96; in the series on HEK-293T (12 h, replicate number 1) it was -0.75; with HEK-293T (12 h, replicate number 2) it was -0.62; with HEK-293T (18 h, replicate number 1) it was -0.41; in the series on HEK-293T (18 h, replicate number 2), -0.28. The “Growth Rate” value in the series on HEK-293T (24 h, replicate number 1) is -0.06; in the series on HEK-293T (24 h, replicate number 2), 0; in the series on Fibroblast (0 h, replicate number 1), 0.68; with Fibroblast (6 h, replicate number 1) it was -0.78; with Fibroblast (6 h, replicate number 2) it was -0.81; in the series with Fibroblast (12 h, replicate number 1), -0.34. The “Growth Rate” value with Fibroblast (12 h, replicate number 2) is -0.25; in the series on Fibroblast (18 h, replicate number 2), 0.18; in the series with Fibroblast (24 h, replicate number 1), 0.48; in the series with Fibroblast (24 h, replicate number 2), 0.3; in the series with U2OS (12 h, replicate number 2), 0.91; with U2OS (18 h, replicate number 1) it was 0.69. In addition, the “Growth Rate” value in the series with U2OS (18 h, replicate number 2) came to 0.7; in the series on U2OS (24 h, replicate number 1), 0.73; with U2OS (24 h, replicate number 2), 0.63.

As to `Cc1c(C(=O)NCCCN(C)C)sc2ncnc(Nc3ccc(F)cc3OC(C)CF)c12` (stereo unspecified), the “Growth Rate” value with HEK-293T (6 h, replicate number 1) is recorded as -0.52; in the series on HEK-293T (6 h, replicate number 2), 0.2; in the series with HEK-293T (12 h, replicate number 1), -0.29; in the series with HEK-293T (12 h, replicate number 2) it was 0.14; with HEK-293T (18 h, replicate number 1), -0.13; in the series with HEK-293T (18 h, replicate number 2), 0.14. Besides, the “Growth Rate” value in the series on HEK-293T (24 h, replicate number 1) was 0.07; with HEK-293T (24 h, replicate number 2), 0.16; in the series on Fibroblast (6 h, replicate number 1), -1; in the series with Fibroblast (18 h, replicate number 2) it was 0.93; in the series with Fibroblast (24 h, replicate number 2) it was 0.55; with U2OS (0 h, replicate number 2) it was 0.69.

For `Cc1c(NC(=O)c2cccn(-c3ccc(F)cc3)c2=O)ccc(Oc2ccnc(NC(=O)C3CC3)c2)c1C`, the “Growth Rate” value was 0.59 in the series with HEK-293T (6 h, replicate number 1); 0.27 in the series on HEK-293T (6 h, replicate number 2); 0.78 in the series with HEK-293T (12 h, replicate number 2); 0.94 in the series with HEK-293T (18 h, replicate number 2); 0.16 in the series on Fibroblast (0 h, replicate number 2); 0.52 with Fibroblast (6 h, replicate number 1). Besides, the “Growth Rate” value in the series on Fibroblast (6 h, replicate number 2) is 0.99; in the series on U2OS (0 h, replicate number 1), -0.05; in the series on U2OS (0 h, replicate number 2), -0.46; in the series on U2OS (12 h, replicate number 1), 0.92; with U2OS (18 h, replicate number 1) it was 0.85; in the series with U2OS (24 h, replicate number 2), 0.96.

`CN1CCN([C@H]2CC[C@@H](n3cc(-c4ccc(Oc5ccccc5)cc4)c4c(N)ncnc43)CC2)CC1`: the “Growth Rate” value in the series on HEK-293T (6 h, replicate number 1) is -0.98; with HEK-293T (12 h, replicate number 1), -0.89; in the series on HEK-293T (12 h, replicate number 2), -0.8; in the series on HEK-293T (18 h, replicate number 1), -0.69; with HEK-293T (18 h, replicate number 2), -0.6; in the series on HEK-293T (24 h, replicate number 1), -0.55. Further, the “Growth Rate” value in the series on HEK-293T (24 h, replicate number 2) is reported as -0.44; with Fibroblast (6 h, replicate number 1), -1; in the series with Fibroblast (6 h, replicate number 2), -0.98; in the series with Fibroblast (12 h, replicate number 2), -0.72; in the series with Fibroblast (18 h, replicate number 2), -0.51; with Fibroblast (24 h, replicate number 1), 0.42. Further, the “Growth Rate” value in the series on Fibroblast (24 h, replicate number 2) is on record as -0.46; in the series with U2OS (0 h, replicate number 1), -1; in the series on U2OS (6 h, replicate number 1), -0.82; in the series with U2OS (6 h, replicate number 2), -0.23; with U2OS (12 h, replicate number 1) it was -0.26; in the series with U2OS (12 h, replicate number 2) it was 0.01. In addition, the “Growth Rate” value with U2OS (18 h, replicate number 1) is reported as -0.15; in the series on U2OS (18 h, replicate number 2), 0.03; in the series on U2OS (24 h, replicate number 1), -0.17; in the series with U2OS (24 h, replicate number 2), -0.03.

As to `Cc1ccc(NC(=O)c2ccc3cnccc3c2)cc1C(=O)Nc1cnc(Nc2cccc(NC3CCN(C(=O)/C=C/CN(C)C)CC3)c2)nc1`, the “Growth Rate” value in the series with HEK-293T (6 h, replicate number 1) is -0.97; in the series on HEK-293T (6 h, replicate number 2) it was -0.98; in the series with HEK-293T (12 h, replicate number 1), -0.87; in the series with HEK-293T (12 h, replicate number 2), -0.77; in the series on HEK-293T (18 h, replicate number 1), -0.65; in the series on HEK-293T (18 h, replicate number 2), -0.56. The “Growth Rate” value in the series on HEK-293T (24 h, replicate number 1) is -0.54; in the series on HEK-293T (24 h, replicate number 2), -0.39; with Fibroblast (0 h, replicate number 1) it was 0.35; in the series on Fibroblast (0 h, replicate number 2), -0.14; in the series with Fibroblast (6 h, replicate number 2) it was -1; in the series on Fibroblast (12 h, replicate number 1), -0.99. For the same molecule, the “Growth Rate” value in the series on Fibroblast (12 h, replicate number 2) was -0.71; in the series on Fibroblast (18 h, replicate number 1), -0.78; with Fibroblast (18 h, replicate number 2), -0.42; in the series on Fibroblast (24 h, replicate number 1), -0.28; with Fibroblast (24 h, replicate number 2), -0.3; with U2OS (0 h, replicate number 2) it was -0.97. Besides, the “Growth Rate” value in the series on U2OS (6 h, replicate number 1) is listed as -0.26; in the series on U2OS (6 h, replicate number 2) it was 0.51; in the series on U2OS (12 h, replicate number 1), 0.17; with U2OS (12 h, replicate number 2), 0.68; with U2OS (18 h, replicate number 1), 0.33; in the series on U2OS (18 h, replicate number 2) it was 0.49. In addition, the “Growth Rate” value is reported as 0.27 with U2OS (24 h, replicate number 1) and 0.46 in the series on U2OS (24 h, replicate number 2).

In the case of `COc1ccc(CCCN2CCC(COC(c3ccccc3)c3ccccc3)CC2)cc1.Cl`, the “Growth Rate” value in the series with HEK-293T (6 h, replicate number 1) is reported as -0.53; in the series with HEK-293T (6 h, replicate number 2), -0.09; in the series with HEK-293T (12 h, replicate number 1), -0.23; in the series on HEK-293T (12 h, replicate number 2), 0.28; in the series with HEK-293T (18 h, replicate number 1) it was -0.02; in the series on HEK-293T (18 h, replicate number 2), 0.26. For the same molecule, the “Growth Rate” value was 0.24 with HEK-293T (24 h, replicate number 1); 0.31 in the series on HEK-293T (24 h, replicate number 2); -1 in the series on Fibroblast (6 h, replicate number 2); -0.98 in the series with Fibroblast (12 h, replicate number 1); -0.74 in the series on Fibroblast (12 h, replicate number 2); -0.16 with Fibroblast (18 h, replicate number 1). For the same molecule, the “Growth Rate” value in the series with Fibroblast (18 h, replicate number 2) is -0.39; in the series with Fibroblast (24 h, replicate number 1), 0.17; in the series with Fibroblast (24 h, replicate number 2) it was -0.23; in the series on U2OS (0 h, replicate number 1), 0.33.

The values are drawn from ChEMBL document CHEMBL5303304, “EUbOPEN Chemogenomics Library - IncuCyte” (2023).
